What all share (assay): NCI-60 cell line screen, 48 h
For experiment [1], the system named is BT-549 breast.
Experiment [2] has as its system CAKI-1 renal.
The test system of experiment [3] is EKVX NSCLC.
Experiment [4] concerns HL-60(TB) leukemia.
Experiment [5] deals with K-562 leukemia.
Experiment [6] deals with MALME-3M melanoma.
The subject of experiment [7] is MDA-MB-435.
Experiment [8] relates to NCI-H23 lung.
In experiment [9] the test system is OVCAR-4 ovarian.
Experiment [10] has as its system SF-268 CNS.

SMILES strings stand for the structures.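 Where inhibition never reached the appropriate level, the endpoint shown equals the highest concentration tested. Otherwise, values were interpolated linearly from a five-concentration, 48-hour dose response in 96-well plates. GI50: concentration for 50% inhibition of growth. The concentration for full growth arrest is given as TGI.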

Consider `C[C@H]1[C@H](C)CC[C@]2(C(=O)OC3OC(CO)C(O)C(O)C3O)CC[C@]3(C)C(=CC[C@@H]4[C@@]5(C)C[C@@H](O)[C@@H]6OC(=O)c7cc(O)c(O)c(O)c7-c7c(cc(O)c(O)c7O)C(=O)OC[C@@]6(CO)[C@@H]5CC[C@]43C)[C@H]12` (stereo not given in full), for which the TGI in [1] is over 100 µM; in [2] it was over 100 µM; in experiment [3], over 100 µM; in [4] it was over 100 µM; in [5] it was 78.5 µM; in experiment [6] it was over 100 µM. In addition, the TGI is 37.2 µM in experiment [7], over 100 µM in experiment [8], 75.3 µM in [9] and over 100 µM in experiment [10].
`NC(=O)c1ccc[n+](C2=C([O-])c3ccccc3C(=O)/C2=N\S(=O)(=O)c2ccccc2)c1`: the TGI in [1] was 28.8 µM; in experiment [2], 37.1 µM; in experiment [3], 27.8 µM; in experiment [4], over 100 µM; in experiment [5], over 100 µM; in [6], 20.1 µM. For the same compound, the TGI was determined as 17.2 µM in experiment [7], 30.6 µM in experiment [8], 18.9 µM in [9] and 31.3 µM in [10].
In the case of `Cc1cccc2c1CC(Cc1ccccc1C(=O)O)C2=O` (stereo not given), the TGI in experiment [1], in [2], in experiment [3], in experiment [4], in experiment [5] and in experiment [6] was over 100 µM throughout. The TGI in experiment [7], in [8], in experiment [9] and in [10] was over 100 µM throughout.
For `Cc1cc(-c2ccccc2)nc2oc(=O)n(C)c12`, the TGI in [1], in [2], in [3], in experiment [4], in experiment [5] and in experiment [6] was over 100 µM in each case. Further, the TGI in experiment [7], in [8], in [9] and in experiment [10] was over 100 µM throughout.
Regarding `O=C([C@H](O)[C@@H](O)c1cccc(Cl)c1)C12CC3CC(CC(C3)C1)C2`, the TGI is 3.74 µM in experiment [1]; 3.98 µM in experiment [2]; 4.38 µM in experiment [3]; 3.79 µM in experiment [4]; over 100 µM in experiment [5]; 18.2 µM in experiment [6]. In addition, the TGI in experiment [7] worked out at 8.46 µM; in [8], 3.84 µM; in experiment [9] it was 7.49 µM; in [10], 4.04 µM.
Take `NC(=O)C1CCN(Cc2c(Cl)c(Cl)c(CN3CCC(C(N)=O)CC3)c(Cl)c2Cl)CC1`: the TGI in experiment [1], in [2], in experiment [3], in experiment [4], in [5] and in experiment [6] was over 100 µM in each case. The TGI in experiment [7], in [8], in [9] and in experiment [10] was over 100 µM each time.
In the case of `CNC(=S)N1CCN(C(C)=O)C1=S`, the TGI was 51.7 µM in experiment [1]; over 100 µM in [2]; 91.9 µM in [3]; over 100 µM in [4]; over 100 µM in experiment [5]; 43.2 µM in experiment [6]. In addition, the TGI in [7] is over 100 µM; in experiment [8], over 100 µM; in experiment [9], 32.1 µM; in [10] it was over 100 µM.
Consider `CS(=O)(=O)Nc1ccc2ccccc2c1`, for which the TGI in [1], in experiment [2], in experiment [3], in [4], in experiment [5] and in experiment [6] was over 100 µM each time. The TGI in experiment [7], in experiment [8], in experiment [9] and in [10] was over 100 µM throughout.
Regarding `O=C(Nc1nn(C(=O)c2cccnc2)c(=O)s1)c1ccc(Cl)cc1`, the TGI in experiment [1] was over 100 µM; in experiment [2], over 100 µM; in [3], over 100 µM; in [4] it was over 100 µM; in experiment [5], over 100 µM; in [6], 91.5 µM. The TGI in experiment [7] was over 100 µM; in experiment [8], over 100 µM; in experiment [9], over 100 µM; in experiment [10], 40.4 µM.
`CCN(CC)CCCCNc1c2ccc(Cl)cc2nc2ccc(OC)cc12`: the GI50 in [1] is 1.85 µM; in experiment [2] it was 1.14 µM; in experiment [3], 0.608 µM; in [4] it was 1.03 µM; in experiment [5], 0.578 µM; in experiment [6], 1.54 µM. The GI50 in experiment [7] was 1.05 µM; in experiment [8] it was 0.524 µM; in experiment [9] it was 0.364 µM; in experiment [10], 0.797 µM. Also, the TGI in [1] amounted to 3.77 µM; in experiment [2], 3.76 µM; in [3], 3.98 µM; in experiment [4] it was 3.2 µM; in [5] it was 3.56 µM; in experiment [6] it was 3.65 µM. Moreover, the TGI in experiment [7] amounted to 2.31 µM; in [8], 2.38 µM; in experiment [9] it was 2.44 µM; in experiment [10] it was 3.33 µM.

Values taken from PubChem BioAssay (NCI).
